The target in assay [1] is T1, ALDH-II (Homo sapiens, UniProt P00352).
T1 sequence (P00352 1-501): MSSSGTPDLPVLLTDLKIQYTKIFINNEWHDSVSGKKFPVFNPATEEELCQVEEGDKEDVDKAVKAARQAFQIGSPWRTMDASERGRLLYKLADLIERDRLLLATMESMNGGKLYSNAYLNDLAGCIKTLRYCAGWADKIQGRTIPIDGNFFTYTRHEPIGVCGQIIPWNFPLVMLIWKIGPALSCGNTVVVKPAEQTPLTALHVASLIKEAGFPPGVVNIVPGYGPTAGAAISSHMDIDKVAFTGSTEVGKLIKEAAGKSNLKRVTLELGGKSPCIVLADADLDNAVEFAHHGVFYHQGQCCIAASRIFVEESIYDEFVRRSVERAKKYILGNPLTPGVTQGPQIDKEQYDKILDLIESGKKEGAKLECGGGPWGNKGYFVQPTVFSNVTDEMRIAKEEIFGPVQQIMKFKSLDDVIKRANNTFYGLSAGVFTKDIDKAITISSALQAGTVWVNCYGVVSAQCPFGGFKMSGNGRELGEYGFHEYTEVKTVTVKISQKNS
As to the kind of experiment: Competitive inhibition of ALDH-II with acetaldehyde as substrate. It counts as biochemical. On the set-up: A liver sample (50 g wet weight) with the usual Caucasian ALDH phenotype (both ALDH-I and ALDH-II present); from tissue; host or cells: human liver (autopsy), purified by CM-52, AMP-agarose and DEAE HPLC.

Assay [2] has as its target T1, ALDH-II. The assay can be described thus: Inhibition kinetics of ALDH-II, initial velocity method, formaldehyde as substrate.
Description: The inhibition kinetics were studied by the initial velocity method (Dixon and Webb, 1979, Enzymes, 3rd ed., Longman, Great Britain). […] The initial reaction rates were measured in a pH 9.5 assay medium 0.1 11 in glycine-NaOH, 0. […] The enzyme reaction rates were followed by monitoring the production of NADH at 340 nm (ε-6.22 mM^-1 cm^-1) with a Varian Cary 219 spectrophotometer thermostated at 25° C. The kinetic data were analyzed by standard graphical methods.
The conditions of assay [3]: high doses; cited from earlier work.
Assay [4] concerns the target T1, ALDH-II. The assay can be described thus: ALDH-II inhibition by structurally related compounds, acetaldehyde as substrate. It counts as biochemical. On the set-up: A liver sample (50 g wet weight) with the usual Caucasian ALDH phenotype (both ALDH-I and ALDH-II present); from tissue; host or cells: human liver (autopsy), purified by CM-52, AMP-agarose and DEAE HPLC. As to the method:
*ALDH activities were assayed at 25° C. in 0.1 M sodium
pyrophosphate buffer pH 9.5 containins 0.15 M KCl, 1 mM NAD^+, various
concentrations of inhibitors and 5 and 200 μM acetaldehyde for ALDH-I
and ALDH-II, respectively.
For the study of the inhibition of ALDH-I by structurally related compounds to generate the data shown in Tables IV and V, each individual compound was dissolved at different concentrations in methanol and was added to the assay medium as 10 μL aliquots. For controls, 10 […] of methanol was added to the assay medium. In a standard ALDH-I assay, the assay medium contains 0.1 M sodium pyrophosphate pH 9.5, 0.15 M KCl, 1 mM NAD^+, 1% methanol, 5 μM acetaldehyde, 5-10 nM ALDH-I and various concentrations of inhibitor. The enzyme reaction rates were measured by monitoring the production of NADH at 340 nm (ε=6.22 mM^-1 cm^-1) with a Varian Cary 219 spectrophotometer thermostated at 25° C. (Fong et al., 1989, supra). The inhibition of ALDH-I by the inhibitors was calculated as: [formula]
where Vo is the enzyme reaction rate measured in the absence of inhibitor, and where Vi is the enzyme reaction rate measured in the presence of inhibitor. […] IC50 values are related to the underlying Ki values.

Results on one molecule are retold here after patent US6255497A, “Method for the inhibition of ALDH-I useful in the treatment of alcohol dependence or alcohol abuse” (priority 1998, dated 2001).

As a reminder, the Ki is the dissociation constant of the complex between target and ligand, obtained from inhibition or displacement. Read a low Ki as tighter binding. Broadly, the IC50 is the concentration that gives 50% inhibition. Lower therefore signals inhibition by little substance. With `O=c1c(-c2ccc(O)cc2)coc2cc(O[C@@H]3O[C@H](CO)[C@@H](O)[C@H](O)[C@H]3O)ccc12` [Daidzin, 7-glucoside of daidzein], the values for the Ki on ALDH-II [1] and at ALDH-II [2] were 28 µM and 20 µM, respectively. In assay [3], the estrogenic activity entry is reported as “estrogenic activity at high doses”. Further, on ALDH-II [4], the half-inhibitory concentration (IC50) amounted to 20 µM.
